Assay results: patent US4169899A, “Penicillamine compounds” (Yoshitomi Pharmaceutical Industries, Ltd., priority 1977, dated 1979)
Like-named read-outs stand apart in the source and are kept apart here.

Experiments:
[1] = tested on: Adjuvant induced arthritis; assay: Adjuvant induced arthritis in the rat (prophylactic effect); type: in vivo, rat (male Wistar)
Procedure: (3) Adjuvant induced arthritis in the rat
The test was performed according to the method described by B. B. Newbould in "British Journal of Pharmacology", vol. 21, 127 (1963).
Male Wistar rats weighing 180 to 210 g were divided into groups of 8 animals each. The arthritic syndrome was induced by an intradermal injection into the right hind paw of 0.1 ml of a suspension of dead tubercle bacilli (6 mg/ml) in liquid paraffin. Swellings in the hind feet were measured with the fluid displacement method at 4, 10, 15, 18, 21 and 28 days after the adjuvant inoculation. Compounds tested were orally administered daily from the adjuvant inoculation day (day 1) to day 20.

peritoneal macrophages = assay: Release (secretion) of lysosomal enzymes from macrophages during phagocytosis; type: cell-based; details: Rattus norvegicus, Peritoneal macrophage, 0.5 h, serum-treated zymosan, 37° C., 30 minutes
Procedure: (§1) (2) Assay of release of lysosomal enzymes from polymorphonuclear (PMN) leukocytes or macrophages during phagocytosis
Preparation of rat peritoneal macrophages was carried out according to the method described by D. Gemsa et al in "Journal of Clinical Investigation",vol. 52, 812 (1973).
(§2) Lysosomal enzymes were released from PMN leukocytes exposed to homologous serum-treated zymosan particles (0.5-3 μ in diameter, Sigma) according to the method described by M. Nakanishi et al in "Yakugaku Zasshi (Journal of the Pharmaceutical Society of Japan)", vol. 95, 672 (1975).
(§3) The effects of test compounds on the enzyme release were studied by determining the release of lysosomal marker enzymes such as aryl sulfatase.
(§4) The test compounds were dissolved in ethanol. The test solution (10 μl) or solvent (control, 10 μl) was added to a 10-ml conical flask containing 2.0 ml of the PMN leukocyte or macrophage suspension. The mixture was kept at 25° C. for 10 minutes. Immediately after the addition of 50 μl of serum-treated zymosan particles (10 mg/ml) to the above mixture, 1.0-ml aliquots were removed to determine the initial activity of free enzymes in the supernatant. The residual mixtures were incubated at 37° C. for 30 minutes with shaking at an agitation cycle of 75/min, and centrifuged at 350 g for 10 minutes at 4° C. The supernatant thus obtained was used for the measurement of the marker enzymes released from PMN leukocytes or macrophages during phagocytosis. The total activity of these enzymes was assayed using the 27,000 g supernatant obtained by centrifuging the PMN leukocytes or macrophages incubated at 37° C. for 30 minutes in 0.2% (v/v) Triton X-100 - Hanks' solution.

Leukocyte migration = Leukocyte migration in the rat (CMC pouch); type: in vivo, rat (male Donryu); details: compound administered into the CMC pouch; for Leukocyte Migration ED50, 5 hr: 5 hr after CMC injection; for Leukocyte Migration ED50, 7 hr: 7 hr after CMC injection
Procedure: (1) Leukocyte migration in the rat
The test was performed according to the method described by H. Ishikawa et al in "Yakugaku Zasshi (Journal of the Pharmaceutical Society of Japan)", vol.
Male Donryu rats weighing about 150 g were divided into groups of 4 to 5 animals each. Five ml of 2% suspension of carboxymethylcellulose (CMC) in physiological saline, which was treated by autoclaving at 120° C. for 15 minutes, was injected subcutaneously in the supra-scapular area. Five and 7 hours later, 0.1 ml of fluid in the CMC pouch was collected and mixed with 3 ml of 0.02% brilliant cresyl blue solution in phosphate buffer (0.002M, pH 7.0). The suspension was put in a Burker chamber and the emigrating leukocytes were counted under a microscope (magnification 400x). The percent inhibition was calculated as compared with the count in the control group. Compounds tested were administered into the CMC pouch immediately after the injection of the CMC suspension.

[2] = tested on: polymorphonuclear (PMN) leukocytes; assay: Release (secretion) of lysosomal enzymes from PMN leukocytes during phagocytosis; type: cell-based; details: Rattus norvegicus, 0.5 h, serum-treated zymosan, 37° C., 30 minutes
Procedure: as §1
Preparation of rat PMN leukocytes was carried out according to the method described by M. Nakanishi et al in "Yakugaku Zasshi (Journal of the Pharmaceutical Society of Japan)", vol. 95, 1027 (1975).
as §2, §3, §4

[3] = po, read-out: Prophylactic Effect on Adjuvant Arthritis MED (minimum effective dose)
[4] = read-out: Secretion of Lysosomal Enzyme IC20, Macrophage, Macrophage
[5] = Leukocyte, read-out: Secretion of Lysosomal Enzyme IC20, PMN leukocyte, PMN leukocyte
[6] = oral, daily from day 1 to day 20, read-out: Prophylactic Effect on Adjuvant Arthritis MED (minimum effective dose)
[7] = Macrophage, read-out: Secretion of Lysosomal Enzyme IC20, Macrophage
[8] = PMN leukocyte, read-out: Secretion of Lysosomal Enzyme IC20, PMN leukocyte

Row | SMILES | minimal effective dose [1, 3] | IC20 (peritoneal macrophages; [4]) | Leukocyte Migration ED50, 5 hr (Leukocyte migration) | Leukocyte Migration ED50, 7 hr (Leukocyte migration) | IC20 [2, 5] | minimal effective dose [1, 6] | IC20 (peritoneal macrophages; [7]) | IC20 [2, 8]
1 | CN(C)CCN1C(=O)C(NC(=O)c2ccc(NS(C)(=O)=O)cc2)C(C)(C)SC1=S.Cc1ccc(S(=O)(=O)O)cc1 (stereo not shown) [Test Compound D, 3-(2-dimethylaminoethyl)-5-(p-methanesulfonamidobenzamido)-6,6-dimethyl-2-thioxo-tetrahydro-2H-1,3-thiazin-4-one p-toluenesulfonate] | 10 mg/kg | 500 nM | 2 mg/rat | 5 mg/rat | 300 nM | – | – | –
2 | CC(=O)Oc1ccccc1C(=O)O [AcetylsalicylicAcid, Acetylsalicylic Acid, reference compound] | 100 mg/kg | 100000 nM | 20 mg/rat | > 25 mg/rat | 100 nM | – | – | –
3 | CC1(C)SC(=S)N(Cc2ccccc2)C(=O)C1NC(=O)c1ccc(Cl)cc1 (stereo not shown) [Test Compound A, 3-benzyl-5-(p-chlorobenzamido)-6,6-dimethyl-2-thioxo-tetrahydro-2H-1,3-thiazin-4-one] | – | – | 15 mg/rat | 15 mg/rat | – | 50 mg/kg | > 10000 nM | 200 nM
4 | CC(C)(S)[C@@H](N)C(=O)O [D-Penicillamine, D-penicillamine, reference compound] | > 200 mg/kg | 1000 nM | > 40 mg/rat | > 40 mg/rat | 10000 nM | – | – | –
5 | CN(C)CCNC(=S)SC(C)(C)C(NC(=O)c1ccc(Cl)cc1)C(=O)O (stereo not drawn) [Test Compound E, n-(p-Chlorobenzoyl)-S-(2-dimethylaminoethylthiocarbamoyl)-penicillamine] | – | – | 2.7 mg/rat | 3.6 mg/rat | – | 10 mg/kg | 100 nM | 1000 nM
6 | CN(C)CCN1C(=O)C(NC(=O)c2ccc(Cl)cc2)C(C)(C)SC1=S.Cc1ccc(S(=O)(=O)O)cc1 (stereo not shown) [Test Compound C, 5-(p-Chlorobenzamido)-3-(2-dimethylaminoethyl)-6,6-dimethyl-2-thioxotetrahydro-2H-1,3-thiazin-4-one p-toluenesulfonate] | – | 100 nM | 3.5 mg/rat | 5 mg/rat | 1000 nM | – | – | –
7 | CN(C)CCN1C(=O)C(NC(=O)c2ccc(Cl)cc2)C(C)(C)SC1=S (stereo not shown) [Test Compound B, 5-(p-Chlorobenzamido)-3-(2-dimethylaminoethyl)-6,6-dimethyl-2-thioxotetrahydro-2H-1,3-thiazin-4-one] | – | – | 2 mg/rat | 2 mg/rat | – | 25 mg/kg | 200 nM | 500 nM
